Assay results from patent US12552758B2, “Inhibitors of MLH1 and/or PMS2 for cancer treatment” (NeoPhore Limited, priority 2020, dated 2026).

Tests used:
[1] = target: recombinant N-terminal PMS2 (residues 1-365) (Homo sapiens (Human), UniProt P54278); assay: Fluorescence polarisation assay for PMS2; type: binding; conditions: FP probe displacement; 10 nM N-terminal PMS2, 5 nM probe compound, read after 1 hour
Procedure, shortened: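 Competitive fluorescence polarisation with 10 nM N-terminal PMS2 and 5 nM final rhodamine-labelled resorcinol probe. Compound is pre-incubated with protein 30 min at room temperature, then probe added and read after 1 h. Values are normalised to no-inhibitor and no-enzyme controls.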

[2] = target: recombinant N-terminal MLH1 (residues 15-340) (Homo sapiens (Human), UniProt P40692); assay: Fluorescence polarisation assay for MLH1 (protocol for Examples 64, 76, 90 and 95); conditions: FP probe displacement, 100 nM N-terminal MLH1, 5 nM probe compound, non-binding surface plate, read immediately
Experimental: Fluorescence Polarisation Assay for MLH1 (Protocol for Examples 64, 76, 90 and 95)
Test compounds, as 10 mM DMSO stocks, were dispensed into a 384-well Low Flange Black Flat Bottom Polystyrene Non-binding Surface plate (Corning®, item number 3575) using a Labcyte Echo acoustic liquid handler. Test compounds were added to wells in columns 1-22 whilst DMSO was added to wells in columns 23 and 24 in order to normalise the plate. 20 μL of a 2× solution (200 nM) of recombinant N-terminal MLH1 (residues 15-340) in assay buffer (25 mM HEPES, pH 7.5, 250 mM NaCl, 10 mM MgCl2, 0.01% Triton X-100, 5 mM dithiothreitol) was added to all wells in columns 1-23 and 20 μL assay buffer was added to all wells in column 24 using an E1-ClipTip pipette (ThermoFisher). Plates were centrifuged for 1 minute at 250×g and were incubated at room temperature for 30 minutes prior to the addition of 20 μL of 2×(10 nM) 5-((5-(4-((2-(2,4-dihydroxy-5-isopropylbenzoyl)isoindolin-5-yl)methyl)piperazin-1-yl)pentyl)carbamoyl)-2-(6-(dimethylamino)-3-(dimethyliminio)-3H-xanthen-9-yl)benzoate in assay buffer (prepared from a 1 mM DMSO stock) with an E1-ClipTip pipette (ThermoFisher). The final concentration of N-terminal MLH1 was 100 nM and the final concentration of the probe compound was 5 nM. Compound plates were centrifuged for 1 minute at 250 xg for 1 minute and immediately read on a PheraStar FSX (fitted with 384-well aperture spoon and 590 675 675 FP optic module). The gain and focus were adjusted before each plate was read so that the polarisation of a no enzyme control (column 24) was equal to 35 mP. Data were normalised against the no inhibitor controls (column 23) and no enzyme controls (column 24).

recombinant N-terminal MLH1 (residues 15-340), sequence (P40692 15-340): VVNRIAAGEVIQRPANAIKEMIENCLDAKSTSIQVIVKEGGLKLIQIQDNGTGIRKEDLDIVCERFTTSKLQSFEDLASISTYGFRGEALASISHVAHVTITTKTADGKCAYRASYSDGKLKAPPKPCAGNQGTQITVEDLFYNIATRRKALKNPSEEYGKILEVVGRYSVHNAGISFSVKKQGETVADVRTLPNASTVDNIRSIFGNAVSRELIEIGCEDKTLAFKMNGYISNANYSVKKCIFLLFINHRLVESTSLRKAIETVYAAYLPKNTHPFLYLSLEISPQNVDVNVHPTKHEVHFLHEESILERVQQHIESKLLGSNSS
recombinant N-terminal PMS2 (residues 1-365), sequence (P54278 1-365): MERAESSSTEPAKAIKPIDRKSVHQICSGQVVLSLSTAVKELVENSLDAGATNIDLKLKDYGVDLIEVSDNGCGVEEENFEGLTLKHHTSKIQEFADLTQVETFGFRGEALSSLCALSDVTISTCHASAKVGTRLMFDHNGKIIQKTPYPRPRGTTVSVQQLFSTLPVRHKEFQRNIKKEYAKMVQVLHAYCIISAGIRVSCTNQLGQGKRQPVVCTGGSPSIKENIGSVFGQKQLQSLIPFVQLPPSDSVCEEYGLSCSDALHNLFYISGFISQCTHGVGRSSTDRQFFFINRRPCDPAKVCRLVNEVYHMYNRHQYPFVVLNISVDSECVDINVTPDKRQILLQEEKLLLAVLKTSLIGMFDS

SMILES | IC50 [1] [µM] | IC50 [2] [µM]
Cc1c(O)cc(O)c(C(=O)N2Cc3ccccc3C[C@@H]2CO)c1OCc1ccccc1 [Example 64, (R)-(2-(benzyloxy)-4,6-dihydroxy-3-methylphenyl)(3-(hydroxymethyl)-3,4-dihydroisoquinolin-2(1H)-yl)methanone] | 1 to 10 | > 10
Cc1c(O)cc(O)c(C(=O)N2Cc3cccc(CN4CCOCC4)c3C2)c1OCc1ccccc1 [Example 76, (2-(Benzyloxy)-4,6-dihydroxy-3-methylphenyl)(4-(morpholinomethyl)isoindolin-2-yl)methanone] | 1 to 10 | > 10
Cc1c(O)cc(O)c(C(=O)N2Cc3cccc(OCc4cncnc4)c3C2)c1OCc1ccccc1 [Example 90, (2-(Benzyloxy)-4,6-dihydroxy-3-methylphenyl)(4-(pyrimidin-5-ylmethoxy)isoindolin-2-yl)methanone] | < 1 | > 10
Cc1c(O)cc(O)c(C(=O)N2Cc3ccc(CN4CCN(C)CC4)cc3C2)c1OCC1CC1 [Example 95, (2-(Cyclopropylmethoxy)-4,6-dihydroxy-3-methylphenyl)(5-((4-methylpiperazin-1-yl)methyl)isoindolin-2-yl)methanone] | < 1 | > 10
